Reference: patent US8722687B2, “Imidazo [1,2-A]pyridine derivatives as FGFR kinase inhibitors for use in therapy” (Astex Therapeutics Ltd, priority 2009, dated 2014)

What was measured:
[1] = system: human prostate cancer PC3 cells; assay: EB1 cellular assay (Eb1 Comet assay, microtubule disruption); format: cell-based; details: PC-3, lowest active concentration: Eb1 foci absent in at least 50% of treated PC3 cells, 1 hour, read-out: Eb1 LAC
Procedure: The Eb1 Comet assay relies on the detection of the Eb1 protein at the plus end of polymerizing microtubules (Mimori-Kiyosue, 2000) using indirect immunofluorescence. Disruption of microtubule dynamics through de-polymerization or stabilization results in a de-localization of Eb1 from the growing microtubule ends and this is visualized by the disappearance of Eb1 containing cytoplasmic foci.
Briefly, human prostate cancer PC3 cells obtained from the American Type Culture Collection were grown in 96-well plates (Greiner, cat. no. 655090) in HAM's F12 medium as recommended by the provider (ATCC). The cells were treated for 1 hour at 37° C. with compounds dissolved in DMSO (0.6% final DMSO concentration). The culture medium was then removed by aspiration and the cells were fixed by adding cold methanol (−20° C.). After a 15 minutes incubation at −20° C., the cells were washed twice with DPBS (Gibco) containing 0.5% Triton X-100. Mouse Eb1 antibody (BD Transduction Laboratories, cat. no. 610534) was added to the cells (1/250 dilution in DPBS containing 1% BSA) and incubated overnight at room temperature. The antibody was subsequently removed and the cells washed twice with DPBS, 0.5% Triton X-100. Secondary goat anti-mouse antibody conjugated to Alexa 488 fluorescent dye (Molecular Probes) was added at a 1/500 dilution in DPBS, 1% BSA and incubated for 1 hour at 37° C. The cells were washed twice with DPBS, 0.5% Triton X-100 and then DPBS containing 0.5% Triton X-100 and 1/5000 Hoechst 33342 (Molecular Probes) was added. Microscopy based Eb1 foci visualization was carried out using an IN Cell Analyser 1000 (Amersham Biosciences) using a 20× objective. Compound dependent microtubule disruption was visually determined by the disappearance in Eb1 foci. The lowest active concentration (LAC) was determined as the concentration where Eb1 foci were absent in at least 50% of the treated cells. Herein the effects of test compounds are expressed as pLAC (the negative log value of the LAC-value)

Ba/F3-Flt3 cells [2] = target: T1, Ba/F3-Flt3 cells (Homo sapiens, UniProt P36888, cells depend on it, form not given); assay: Ba/F3-Flt3 assay (Alamar Blue); format: cell-based, murine; details: without IL3
T1 construct: Ba/F3-flt3 − IL3 pIC50; other: without IL3
T1 sequence (P36888 1-993): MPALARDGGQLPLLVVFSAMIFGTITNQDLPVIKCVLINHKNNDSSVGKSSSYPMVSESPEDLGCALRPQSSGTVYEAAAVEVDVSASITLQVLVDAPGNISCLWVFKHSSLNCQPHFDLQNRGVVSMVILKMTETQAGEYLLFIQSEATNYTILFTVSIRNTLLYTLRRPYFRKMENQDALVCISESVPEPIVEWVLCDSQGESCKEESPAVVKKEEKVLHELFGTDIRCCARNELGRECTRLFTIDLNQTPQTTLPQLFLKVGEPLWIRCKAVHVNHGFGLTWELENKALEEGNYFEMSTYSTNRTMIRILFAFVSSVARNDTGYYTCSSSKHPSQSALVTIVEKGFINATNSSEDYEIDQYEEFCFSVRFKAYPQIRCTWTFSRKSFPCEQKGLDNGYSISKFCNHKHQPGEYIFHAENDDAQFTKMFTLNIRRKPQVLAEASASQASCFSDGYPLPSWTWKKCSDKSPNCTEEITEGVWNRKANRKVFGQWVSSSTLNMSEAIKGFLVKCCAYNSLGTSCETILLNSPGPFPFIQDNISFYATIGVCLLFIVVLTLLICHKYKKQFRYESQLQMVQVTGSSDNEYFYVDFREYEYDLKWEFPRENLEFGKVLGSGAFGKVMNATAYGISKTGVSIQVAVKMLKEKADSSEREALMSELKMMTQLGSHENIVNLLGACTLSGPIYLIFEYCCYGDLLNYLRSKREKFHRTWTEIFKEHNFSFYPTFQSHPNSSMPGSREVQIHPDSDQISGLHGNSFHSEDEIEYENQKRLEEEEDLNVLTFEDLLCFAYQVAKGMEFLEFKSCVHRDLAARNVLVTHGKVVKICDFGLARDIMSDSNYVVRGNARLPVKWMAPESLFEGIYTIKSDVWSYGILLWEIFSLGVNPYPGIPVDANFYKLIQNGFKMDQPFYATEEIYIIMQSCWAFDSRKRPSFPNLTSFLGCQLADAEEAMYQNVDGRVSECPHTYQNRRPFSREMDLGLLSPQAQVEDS
Excerpt: (§1) Ba/F3, a murine interleukin-3 dependent pro-B cell line is increasingly popular as a model system for assessing both the potency and downstream signaling of kinase oncogenes, and the ability of small-molecule kinase inhibitors to block kinase activity. Facilitated by their growth properties. Ba/F3 cells have recently been adapted to high throughput assay formats for compound profiling. Further, several published approaches show promise in predicting resistance to small-molecule kinase inhibitors elicited by point mutations interfering with inhibitor binding (Ba/F3 cells and their use in kinase drug discovery; Markus Warmuth, Sungjoon Kim, Xiang-ju Gu, Gang Xia and Francisco Adria'n; Curr Opin Oncol 19:55-60).
(§2) Ba/F3-Flt3 cells (cultured in phenol red free RPMI-1640, 10% A FCS and 50 μg/ml Gentamycin at 37° C. and 5% 002) were plated at a density of 10000 cells in a total volume of 180 μl medium in a black TC-treated sterile 96-well plate (Corning). After 24 hours, drugs in different dilutions were added to a final volume of 200 μl and at a final DMSO concentration of 0.2% prior to incubation at 37° C., and 5% CO2.
(§3) After 24 h, to each well 40 μl Alamar Blue solution (Aldrich) was added and the cells were further incubated for 4 hours at 37° C. Fluorescence (ex. 544, em. 590 nm) was measured using a fluorescence reader (Labsystems) and IC50's were calculated.
(§4) In the condition containing IL3, 10 ng/ml of murine IL3 (PeproTech) was added during compound incubation.

Ba/F3-Flt3 cells [3] = assay: Ba/F3-Flt3 assay (Alamar Blue); format: cell-based, murine; details: Mus musculus, 24 h; with 10 ng/ml murine IL3; read-out: Ba/F3-flt3 + IL3 pIC50 (converted)
Excerpt: as §1, §2, §3, §4

VEGFR2 = target: T2, VEGFR2 (Homo sapiens, UniProt P35968); assay: VEGFR2 in vitro kinase inhibitory activity assay; format: biochemical; details: read-out: VEGFR2 IC50(μM) or % I
T2 construct: purchased Upstate
Procedure: (§5) FGFR3, VEGFR2 and PDGFR in vitro Kinase Inhibitory Activity Assays
(§6) Enzymes (from Upstate), prepared at 2× final concentration, were incubated with test compounds, biotinylated Flt3 substrate (biotin-VASSDNEYFYVDF) (Cell Signalling Technology Inc.) and ATP in the appropriate assay buffer (Table 1). The reaction was allowed to proceed for 3 hours (FGFR3), 1 hour (VEGFR2, PDGFR-beta) at room temperature on a plate shaker at 700 rpm before being stopped with 35 mM EDTA, pH 8 (FGFR3, VEGFR2) or 55 mM EDTA, pH 8 (PDGFR-beta). 5× detection mix/50 mM HEPES pH 7.5, 0.1% BSA, 11.34 nM Eu-anti-pY (PY20) (PerkinElmer) 74 nM SA-XL665 (Cisbio) for FGFR3, 50 mM HEPES, pH 7.5, 0.1% BSA, 11.34 nM Eu-anti-pY (PY20), 187.5 nM SA-XL665 for VEGFR2 and 50 mM HEPES, pH 7.5, 0.1% BSA, 11.34 nM Eu-anti-pY (PT66) (PerkinElmer), 375 nM SA-XL665 (Cisbio) for PDGFR-beta) was then added to each well and the plate sealed and incubated at room temperature for one hour on a plate shaker at 700 rpm. The plate was then read on a Packard Fusion plate reader or a BMG Pherastar both in TRF mode.
Kinase Assay buffers were:
B: 50 mM HEPES pH 7.5, 6 mM MnCl2, 1 mM DTT, 0.01% TritonX-100, 0.1 mM Sodium orthovanadate

FGFR3 = target: T3, FGFR3 (Homo sapiens, UniProt P22607); assay: FGFR3 in vitro kinase inhibitory activity assay; format: biochemical; details: read-out: FGFR3 IC50(μM) or % I
T3 construct: purchased Upstate
Procedure: as §5, §6

Ba/F3-TEL-FGFR3 cells = target: T4, Ba/F3-TEL-FGFR3 cells (Homo sapiens, UniProt P22607); assay: Ba/F3-TEL-FGFR3 cell proliferation assay (Alamar Blue); format: cell-based, murine; details: 72 hours; read-out: BaF3-TEL-FGFR3 prolif
T4 construct: fused on or other part: TEL (ETV6) N-terminal oligomerising part fused to the FGFR3 kinase part; P41212 (Transcription factor ETV6)
Procedure: (§7) Ba/F3-TEL-FGFR3 & Ba/F3 (WT) Cell Proliferation Assays
(§8) Stably transfected Ba/F3-TEL-FGFR3 cells were plated out into black 96-well tissue culture plates with clear bottoms in RPMI medium containing 10% FBS and 0.25 mg/ml G418 at a density of 5×10^3 cells/well (200 μl per well). The parental wild-type Ba/F3 cells (DSMZ no.: ACC 300) were plated out into black 96-well tissue culture plates with clear bottoms in RPMI medium containing 10% FBS and 2 ng/ml mouse IL-3 (R&D Systems) at a density of 2.5×10^3 cells/well (200 μl per well). Plates were placed in an incubator overnight before adding the compounds the following day. Dilutions of compounds were made in DMSO starting at 10 mM and were diluted into the wells to give a final DMSO concentration of 0.1% in assay. Compounds were left on the cells for 72 hours before the plates were removed from the incubator and 20 μl of Alamar Blue™ (Biosource) was added to each well. Plates were placed in the incubator for 4-6 hours before reading plates at 535 nm (excitation)/590 nm (emission) on a Fusion plate reader (Packard). Where inhibition is high an IC50 can be determined.

[4] = system: parental wild-type Ba/F3 cells; assay: Ba/F3 (WT) cell proliferation assay (Alamar Blue); format: cell-based, murine; details: read-out: BaF3 WT prolif
Procedure: as §7, §8

T2 sequence (P35968 20-1356): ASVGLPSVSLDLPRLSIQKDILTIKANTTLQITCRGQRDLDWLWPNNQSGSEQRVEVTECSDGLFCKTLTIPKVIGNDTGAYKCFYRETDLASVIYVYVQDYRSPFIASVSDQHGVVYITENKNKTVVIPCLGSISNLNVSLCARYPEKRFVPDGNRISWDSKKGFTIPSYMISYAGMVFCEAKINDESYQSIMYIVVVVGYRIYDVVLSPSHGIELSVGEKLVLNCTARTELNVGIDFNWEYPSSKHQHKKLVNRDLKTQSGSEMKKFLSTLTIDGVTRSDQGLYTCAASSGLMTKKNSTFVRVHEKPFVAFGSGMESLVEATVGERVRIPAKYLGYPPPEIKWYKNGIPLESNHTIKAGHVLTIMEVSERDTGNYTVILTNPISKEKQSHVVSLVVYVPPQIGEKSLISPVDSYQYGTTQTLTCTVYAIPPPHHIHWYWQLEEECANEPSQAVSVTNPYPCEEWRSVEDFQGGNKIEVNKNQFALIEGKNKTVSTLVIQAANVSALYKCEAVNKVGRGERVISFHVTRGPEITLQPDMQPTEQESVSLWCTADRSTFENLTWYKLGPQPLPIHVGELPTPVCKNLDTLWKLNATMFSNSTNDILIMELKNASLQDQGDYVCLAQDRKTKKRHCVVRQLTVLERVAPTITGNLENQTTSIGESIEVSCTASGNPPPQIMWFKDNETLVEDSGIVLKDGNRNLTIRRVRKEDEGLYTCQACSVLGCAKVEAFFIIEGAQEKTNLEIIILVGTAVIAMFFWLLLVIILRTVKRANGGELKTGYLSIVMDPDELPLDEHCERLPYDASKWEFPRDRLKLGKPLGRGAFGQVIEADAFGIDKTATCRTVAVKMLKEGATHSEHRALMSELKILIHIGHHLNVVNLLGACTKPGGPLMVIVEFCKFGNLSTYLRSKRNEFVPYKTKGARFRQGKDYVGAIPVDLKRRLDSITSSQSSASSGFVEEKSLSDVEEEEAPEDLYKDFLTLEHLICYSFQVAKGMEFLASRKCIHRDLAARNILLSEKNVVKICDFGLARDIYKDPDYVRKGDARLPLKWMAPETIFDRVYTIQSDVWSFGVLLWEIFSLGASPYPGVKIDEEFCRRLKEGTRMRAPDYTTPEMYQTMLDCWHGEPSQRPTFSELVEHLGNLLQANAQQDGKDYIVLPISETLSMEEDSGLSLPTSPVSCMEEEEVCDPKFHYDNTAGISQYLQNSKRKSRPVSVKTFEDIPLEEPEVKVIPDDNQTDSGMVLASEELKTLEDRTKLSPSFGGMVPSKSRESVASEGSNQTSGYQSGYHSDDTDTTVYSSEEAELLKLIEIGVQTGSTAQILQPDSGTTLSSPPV
T3 sequence (P22607 23-806): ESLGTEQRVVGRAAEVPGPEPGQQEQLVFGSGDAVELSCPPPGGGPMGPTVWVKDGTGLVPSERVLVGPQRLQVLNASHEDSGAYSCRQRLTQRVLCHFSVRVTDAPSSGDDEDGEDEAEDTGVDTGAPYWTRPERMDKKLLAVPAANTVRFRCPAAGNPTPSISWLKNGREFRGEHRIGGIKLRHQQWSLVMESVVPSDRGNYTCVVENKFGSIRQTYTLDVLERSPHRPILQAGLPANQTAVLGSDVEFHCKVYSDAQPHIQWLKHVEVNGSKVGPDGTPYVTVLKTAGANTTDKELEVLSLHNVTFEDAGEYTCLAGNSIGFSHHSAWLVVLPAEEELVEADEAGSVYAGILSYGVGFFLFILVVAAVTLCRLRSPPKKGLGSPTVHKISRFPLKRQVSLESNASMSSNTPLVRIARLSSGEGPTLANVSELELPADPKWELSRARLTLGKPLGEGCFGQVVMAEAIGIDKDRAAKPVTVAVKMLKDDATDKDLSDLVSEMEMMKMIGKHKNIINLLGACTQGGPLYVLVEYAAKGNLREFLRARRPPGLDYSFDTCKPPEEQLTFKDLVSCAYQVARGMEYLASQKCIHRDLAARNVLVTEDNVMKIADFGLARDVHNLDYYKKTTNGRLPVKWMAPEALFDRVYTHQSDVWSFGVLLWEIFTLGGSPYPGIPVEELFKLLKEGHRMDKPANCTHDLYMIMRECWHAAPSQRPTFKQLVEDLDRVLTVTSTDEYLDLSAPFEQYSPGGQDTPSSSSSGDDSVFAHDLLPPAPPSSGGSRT
T4 sequence (P22607 whole entry, change not shown, the tested form may be a part): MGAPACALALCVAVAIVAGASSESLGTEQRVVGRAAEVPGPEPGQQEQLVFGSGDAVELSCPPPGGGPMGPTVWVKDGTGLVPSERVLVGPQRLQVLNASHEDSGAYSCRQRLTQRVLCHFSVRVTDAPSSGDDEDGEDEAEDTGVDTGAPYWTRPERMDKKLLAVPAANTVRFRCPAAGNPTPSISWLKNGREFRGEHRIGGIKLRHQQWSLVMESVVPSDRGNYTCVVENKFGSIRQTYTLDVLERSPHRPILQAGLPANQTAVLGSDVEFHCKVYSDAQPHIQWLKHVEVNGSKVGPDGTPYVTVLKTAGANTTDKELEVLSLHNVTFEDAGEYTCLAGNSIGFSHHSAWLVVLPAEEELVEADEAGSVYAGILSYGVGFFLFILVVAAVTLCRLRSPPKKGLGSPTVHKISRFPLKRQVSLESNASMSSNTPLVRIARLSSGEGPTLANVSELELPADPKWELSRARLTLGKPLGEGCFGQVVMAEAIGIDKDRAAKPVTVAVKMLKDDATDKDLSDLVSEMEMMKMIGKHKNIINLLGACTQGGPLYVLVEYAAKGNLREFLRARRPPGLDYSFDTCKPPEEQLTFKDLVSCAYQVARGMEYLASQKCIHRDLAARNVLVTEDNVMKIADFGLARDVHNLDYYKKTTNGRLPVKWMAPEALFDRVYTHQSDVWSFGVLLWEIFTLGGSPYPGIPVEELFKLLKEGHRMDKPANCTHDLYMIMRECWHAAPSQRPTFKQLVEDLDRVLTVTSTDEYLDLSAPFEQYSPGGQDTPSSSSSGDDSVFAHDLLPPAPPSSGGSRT

| Ba/F3-flt3 − IL3 pIC50 (Ba/F3-Flt3 cells [2]) | IC50 (Ba/F3-Flt3 cells [3]) [nM] | IC50 (VEGFR2) [µM] | IC50 (FGFR3) [µM] | GI50 (Ba/F3-TEL-FGFR3 cells) [nM] | Compound | minimal effective concentration [1] [µM] | IC50 ([4]; BaF3, 72 hours, with mouse IL-3) [nM] | inhibition at 10 µM ([4]; Mus musculus, BaF3, 72 h, % at 10.0 μM) [%] | inhibition at 0.3 µM (FGFR3; 3 h, % I at 0.3 μM) [%] |
| --- | --- | --- | --- | --- | --- | --- | --- | --- | --- |
| <5 | > 10000 | 1.2 |  |  | Cc1nnc(-c2ccn3c(-c4cc(NC(=O)NC(O)C(F)(F)F)cc(OC(C)C)c4)cnc3c2)o1 (stereo not drawn) [Compound F-32, 1-{3-Isopropoxy-5-[7-(5-methyl-[1,3,4]oxadiazol-2-yl)-imidazo[1,2-a]pyridin-3-yl]-phenyl}-3-(2,2,2-trifluoro-1-hydroxyethyl)-urea] | > 10 |  |  |  |
| <5 | > 10000 | 2.8 |  |  | Cc1nnc(-c2ccn3c(-c4cc(CN(C)C)cc(NC(=O)NCC(F)(F)F)c4)cnc3c2)o1 [Compound F-24, 1-{3-Dimethylaminomethyl-5-[7-(5-methyl-[1,3,4]oxadiazol-2-yl)-imidazo[1,2-a]pyridin-3-yl]-phenyl}-3-(2,2,2-trifluoroethyl)-urea] | > 10 |  |  |  |
| <5 | > 10000 | 5.8 | 0.17 |  | Cc1nnc(-c2ccn3c(-c4cc(NC(=O)NCC(F)(F)F)cc(NC(C)C)c4)cnc3c2)o1 [Compound F-30] | 10 |  |  |  |
| <5 | > 10000 | 1.7 | 0.46 |  | CNCc1cc(NC(=O)NCC(F)(F)F)cc(-c2cnc3cc(-c4nnc(C)o4)ccn23)c1 [Compound F-25, 1-{3-Methylaminomethyl-5-[7-(5-methyl-[1,3,4]oxadiazol-2-yl)-imidazo[1,2-a]pyridin-3-yl]-phenyl}-3-(2,2,2-trifluoroethyl)-urea] | > 10 |  |  |  |
|  |  | 2.6 | 0.2 |  | Cc1nnc(-c2ccn3c(-c4cc(NC(=O)NCC(C)C)cc(OC(C)C)c4)cnc3c2)o1 [Compound F-14, 1-Isobutyl-3-{3-isopropoxy-5-[7-(5-methyl-[1,3,4]oxadiazol-2-yl)-imidazo[1,2-a]pyridin-3-yl]-phenyl}-urea] |  |  |  |  |
|  |  | 0.79 | 0.012 | 240 | CC(C)Oc1cc(NC(=O)NCC(F)(F)F)cc(-c2cnc3cc(-c4cc(N(C)C)ncn4)ccn23)c1 [Compound F-21, 1-{3-[7-(6-Dimethylamino-pyrimidin-4-yl)-imidazo[1,2-a]pyridin-3-yl]-5-isopropoxy-phenyl}-3-(2,2,2-trifluoro-ethyl)-urea] |  | 2300 |  |  |
|  |  | 1.1 | 0.041 | 1300 | CC(C)Oc1cc(NC(=O)NCC(F)(F)F)cc(-c2cnc3cc(-c4nnco4)ccn23)c1 [Compound F-22, 1-[3-Isopropoxy-5-(7-[1,3,4]oxadiazol-2-yl-imidazo[1,2-a]pyridin-3-yl)-phenyl]-3-(2,2,2-trifluoro-ethyl)-urea] |  |  | 19 |  |

| Compound | Ba/F3-flt3 − IL3 pIC50 (Ba/F3-Flt3 cells [2]) | IC50 (Ba/F3-Flt3 cells [3]) [nM] | IC50 (VEGFR2) [µM] | IC50 (FGFR3) [µM] | GI50 (Ba/F3-TEL-FGFR3 cells) [nM] | minimal effective concentration [1] [µM] | IC50 ([4]; BaF3, 72 hours, with mouse IL-3) [nM] | inhibition at 10 µM ([4]; Mus musculus, BaF3, 72 h, % at 10.0 μM) [%] | inhibition at 0.3 µM (FGFR3; 3 h, % I at 0.3 μM) [%] |
| --- | --- | --- | --- | --- | --- | --- | --- | --- | --- |
| O=C(NCC(F)(F)F)Nc1cc(OC2CCC2)cc(-c2cnc3cc(-c4ccnc(C(F)(F)F)n4)ccn23)c1 [Compound F-12, 1-{3-Cyclobutoxy-5-[7-(2-trifluoromethyl-pyrimidin-4-yl)-imidazo[1,2-a]pyridin-3-yl]-phenyl}-3-(2,2,2-trifluoro-ethyl)-urea] | <5 | > 10000 | 2.2 |  |  | > 10 |  |  | 60 |
